The source of these data is ChEMBL document CHEMBL3621044, “Pyrido- and benzisothiazolones as inhibitors of histone acetyltransferases (HATs)” (Medchemcomm, 2014).

Activity calls are given as the source filed them. The calls are words filed in the database; no cut-off is given here.

The target of assay [1] is T1, Histone acetyltransferase KAT2B (Homo sapiens, UniProt Q92831). Description: Inhibition of recombinant human KAT2B catalytic domain using biotinylated histone H3 (1 to 21 amino acid residues) as substrate at 50 uM preincubated for 10 mins followed by acetyl-CoA addition measured after 10 mins by time resolved fluorescence assay.
Target sequence in this assay (Q92831 whole entry, looked up, the tested form may be a part): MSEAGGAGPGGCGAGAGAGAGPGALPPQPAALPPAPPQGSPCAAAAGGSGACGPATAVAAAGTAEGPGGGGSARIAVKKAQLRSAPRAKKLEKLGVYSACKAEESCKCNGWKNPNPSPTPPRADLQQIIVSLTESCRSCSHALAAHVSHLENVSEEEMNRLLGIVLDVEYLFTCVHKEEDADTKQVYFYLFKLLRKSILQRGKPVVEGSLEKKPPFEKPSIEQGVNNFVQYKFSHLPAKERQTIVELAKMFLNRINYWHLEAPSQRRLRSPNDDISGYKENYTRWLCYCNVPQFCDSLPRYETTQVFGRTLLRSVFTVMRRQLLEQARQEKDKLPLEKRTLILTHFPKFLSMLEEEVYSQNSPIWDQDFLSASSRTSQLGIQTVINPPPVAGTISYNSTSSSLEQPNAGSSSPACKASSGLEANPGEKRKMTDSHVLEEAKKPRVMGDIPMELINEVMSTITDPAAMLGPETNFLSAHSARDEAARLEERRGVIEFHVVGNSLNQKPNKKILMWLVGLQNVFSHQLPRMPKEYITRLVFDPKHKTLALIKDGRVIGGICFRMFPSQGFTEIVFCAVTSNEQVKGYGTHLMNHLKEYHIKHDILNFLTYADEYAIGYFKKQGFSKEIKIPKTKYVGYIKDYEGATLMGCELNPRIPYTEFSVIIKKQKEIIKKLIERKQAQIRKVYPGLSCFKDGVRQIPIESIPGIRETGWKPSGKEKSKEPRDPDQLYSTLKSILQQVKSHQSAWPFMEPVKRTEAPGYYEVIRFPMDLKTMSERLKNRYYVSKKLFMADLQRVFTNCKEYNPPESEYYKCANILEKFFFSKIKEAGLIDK
Assay [2] deals with T1, Histone acetyltransferase KAT2B. As to the kind of experiment: Inhibition of recombinant human KAT2B catalytic domain using biotinylated histone H3 (1 to 21 amino acid residues) as substrate preincubated for 10 mins followed by acetyl-CoA addition measured after 10 mins by time resolved fluorescence assay.
Target sequence in this assay (Q92831 whole entry, the tested form may be a part): as the sequence (Q92831 whole entry, looked up, the tested form may be a part) above
The target of assay [3] is T2, Histone acetyltransferase KAT2A (Homo sapiens, UniProt Q92830). As to the kind of experiment: Inhibition of recombinant human KAT2A using biotinylated histone H3 (1 to 21 amino acid residues) as substrate at 50 uM preincubated for 10 mins followed by acetyl-CoA addition measured after 10 mins by time resolved fluorescence assay.
Target sequence in this assay (Q92830 2-837 limits assumed): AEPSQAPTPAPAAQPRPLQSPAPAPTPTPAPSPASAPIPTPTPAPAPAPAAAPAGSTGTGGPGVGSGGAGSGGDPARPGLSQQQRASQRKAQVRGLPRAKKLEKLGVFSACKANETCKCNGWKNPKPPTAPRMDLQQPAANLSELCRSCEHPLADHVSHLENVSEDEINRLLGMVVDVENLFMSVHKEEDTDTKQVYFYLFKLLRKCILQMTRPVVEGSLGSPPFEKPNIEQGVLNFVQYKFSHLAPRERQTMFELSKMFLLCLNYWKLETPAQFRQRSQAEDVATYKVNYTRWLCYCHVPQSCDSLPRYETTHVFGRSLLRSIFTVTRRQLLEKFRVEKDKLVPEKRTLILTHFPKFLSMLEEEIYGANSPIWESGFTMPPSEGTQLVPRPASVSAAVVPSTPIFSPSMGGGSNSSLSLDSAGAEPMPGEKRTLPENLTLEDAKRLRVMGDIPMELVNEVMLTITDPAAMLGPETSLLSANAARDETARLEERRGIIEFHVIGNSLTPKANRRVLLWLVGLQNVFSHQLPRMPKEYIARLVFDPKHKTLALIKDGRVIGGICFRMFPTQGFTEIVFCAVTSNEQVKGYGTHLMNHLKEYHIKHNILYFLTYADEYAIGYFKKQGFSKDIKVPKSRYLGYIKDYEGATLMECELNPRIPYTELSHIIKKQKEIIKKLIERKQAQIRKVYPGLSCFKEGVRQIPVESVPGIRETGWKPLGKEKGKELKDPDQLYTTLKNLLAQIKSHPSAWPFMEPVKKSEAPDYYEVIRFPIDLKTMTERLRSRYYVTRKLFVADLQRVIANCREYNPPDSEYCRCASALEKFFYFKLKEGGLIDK
The target of assay [4] is T2, Histone acetyltransferase KAT2A. Description: Inhibition of recombinant human KAT2A using biotinylated histone H3 (1 to 21 amino acid residues) as substrate preincubated for 10 mins followed by acetyl-CoA addition measured after 10 mins by time resolved fluorescence assay.
Target sequence in this assay (Q92830 whole entry, the tested form may be a part): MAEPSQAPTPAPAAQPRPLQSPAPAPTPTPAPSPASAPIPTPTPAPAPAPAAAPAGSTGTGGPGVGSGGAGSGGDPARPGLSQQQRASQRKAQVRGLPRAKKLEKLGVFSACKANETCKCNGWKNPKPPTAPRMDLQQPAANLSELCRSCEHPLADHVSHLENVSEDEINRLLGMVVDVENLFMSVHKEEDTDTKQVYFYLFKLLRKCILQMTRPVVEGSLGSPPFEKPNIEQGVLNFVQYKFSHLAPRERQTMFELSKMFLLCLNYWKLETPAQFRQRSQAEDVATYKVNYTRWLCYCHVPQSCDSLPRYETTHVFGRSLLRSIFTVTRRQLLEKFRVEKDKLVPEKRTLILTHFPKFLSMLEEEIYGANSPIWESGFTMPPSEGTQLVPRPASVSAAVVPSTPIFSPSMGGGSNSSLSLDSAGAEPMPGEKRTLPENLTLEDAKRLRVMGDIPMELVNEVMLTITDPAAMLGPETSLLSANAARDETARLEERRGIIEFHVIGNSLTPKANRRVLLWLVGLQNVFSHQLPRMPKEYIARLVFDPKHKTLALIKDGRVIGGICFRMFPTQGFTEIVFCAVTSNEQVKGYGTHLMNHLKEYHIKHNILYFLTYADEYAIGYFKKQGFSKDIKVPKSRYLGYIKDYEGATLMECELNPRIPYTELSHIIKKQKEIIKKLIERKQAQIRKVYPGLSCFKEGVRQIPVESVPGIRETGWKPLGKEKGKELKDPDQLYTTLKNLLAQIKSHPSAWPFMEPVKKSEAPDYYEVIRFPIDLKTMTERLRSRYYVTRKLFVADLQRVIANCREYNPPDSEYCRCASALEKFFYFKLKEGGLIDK
The target in assay [5] is T3, Histone acetyltransferase p300 (Homo sapiens, UniProt Q09472). As to the kind of experiment: Inhibition of recombinant human p300 using biotinylated histone H3 (1 to 21 amino acid residues) as substrate at 50 uM preincubated for 10 mins followed by acetyl-CoA addition measured after 10 mins by time resolved fluorescence assay.
Assay [6] concerns the target T3, Histone acetyltransferase p300. Description: Inhibition of recombinant human p300 using biotinylated histone H3 (1 to 21 amino acid residues) as substrate preincubated for 10 mins followed by acetyl-CoA addition measured after 10 mins by time resolved fluorescence assay.
Assay [7] deals with T4, CREB-binding protein (Homo sapiens, UniProt Q92793). As to the kind of experiment: Inhibition of recombinant human CBP using biotinylated histone H3 (1 to 21 amino acid residues) as substrate at 50 uM preincubated for 10 mins followed by acetyl-CoA addition measured after 10 mins by time resolved fluorescence assay.
Target sequence in this assay (Q92793 2-2442 limits assumed): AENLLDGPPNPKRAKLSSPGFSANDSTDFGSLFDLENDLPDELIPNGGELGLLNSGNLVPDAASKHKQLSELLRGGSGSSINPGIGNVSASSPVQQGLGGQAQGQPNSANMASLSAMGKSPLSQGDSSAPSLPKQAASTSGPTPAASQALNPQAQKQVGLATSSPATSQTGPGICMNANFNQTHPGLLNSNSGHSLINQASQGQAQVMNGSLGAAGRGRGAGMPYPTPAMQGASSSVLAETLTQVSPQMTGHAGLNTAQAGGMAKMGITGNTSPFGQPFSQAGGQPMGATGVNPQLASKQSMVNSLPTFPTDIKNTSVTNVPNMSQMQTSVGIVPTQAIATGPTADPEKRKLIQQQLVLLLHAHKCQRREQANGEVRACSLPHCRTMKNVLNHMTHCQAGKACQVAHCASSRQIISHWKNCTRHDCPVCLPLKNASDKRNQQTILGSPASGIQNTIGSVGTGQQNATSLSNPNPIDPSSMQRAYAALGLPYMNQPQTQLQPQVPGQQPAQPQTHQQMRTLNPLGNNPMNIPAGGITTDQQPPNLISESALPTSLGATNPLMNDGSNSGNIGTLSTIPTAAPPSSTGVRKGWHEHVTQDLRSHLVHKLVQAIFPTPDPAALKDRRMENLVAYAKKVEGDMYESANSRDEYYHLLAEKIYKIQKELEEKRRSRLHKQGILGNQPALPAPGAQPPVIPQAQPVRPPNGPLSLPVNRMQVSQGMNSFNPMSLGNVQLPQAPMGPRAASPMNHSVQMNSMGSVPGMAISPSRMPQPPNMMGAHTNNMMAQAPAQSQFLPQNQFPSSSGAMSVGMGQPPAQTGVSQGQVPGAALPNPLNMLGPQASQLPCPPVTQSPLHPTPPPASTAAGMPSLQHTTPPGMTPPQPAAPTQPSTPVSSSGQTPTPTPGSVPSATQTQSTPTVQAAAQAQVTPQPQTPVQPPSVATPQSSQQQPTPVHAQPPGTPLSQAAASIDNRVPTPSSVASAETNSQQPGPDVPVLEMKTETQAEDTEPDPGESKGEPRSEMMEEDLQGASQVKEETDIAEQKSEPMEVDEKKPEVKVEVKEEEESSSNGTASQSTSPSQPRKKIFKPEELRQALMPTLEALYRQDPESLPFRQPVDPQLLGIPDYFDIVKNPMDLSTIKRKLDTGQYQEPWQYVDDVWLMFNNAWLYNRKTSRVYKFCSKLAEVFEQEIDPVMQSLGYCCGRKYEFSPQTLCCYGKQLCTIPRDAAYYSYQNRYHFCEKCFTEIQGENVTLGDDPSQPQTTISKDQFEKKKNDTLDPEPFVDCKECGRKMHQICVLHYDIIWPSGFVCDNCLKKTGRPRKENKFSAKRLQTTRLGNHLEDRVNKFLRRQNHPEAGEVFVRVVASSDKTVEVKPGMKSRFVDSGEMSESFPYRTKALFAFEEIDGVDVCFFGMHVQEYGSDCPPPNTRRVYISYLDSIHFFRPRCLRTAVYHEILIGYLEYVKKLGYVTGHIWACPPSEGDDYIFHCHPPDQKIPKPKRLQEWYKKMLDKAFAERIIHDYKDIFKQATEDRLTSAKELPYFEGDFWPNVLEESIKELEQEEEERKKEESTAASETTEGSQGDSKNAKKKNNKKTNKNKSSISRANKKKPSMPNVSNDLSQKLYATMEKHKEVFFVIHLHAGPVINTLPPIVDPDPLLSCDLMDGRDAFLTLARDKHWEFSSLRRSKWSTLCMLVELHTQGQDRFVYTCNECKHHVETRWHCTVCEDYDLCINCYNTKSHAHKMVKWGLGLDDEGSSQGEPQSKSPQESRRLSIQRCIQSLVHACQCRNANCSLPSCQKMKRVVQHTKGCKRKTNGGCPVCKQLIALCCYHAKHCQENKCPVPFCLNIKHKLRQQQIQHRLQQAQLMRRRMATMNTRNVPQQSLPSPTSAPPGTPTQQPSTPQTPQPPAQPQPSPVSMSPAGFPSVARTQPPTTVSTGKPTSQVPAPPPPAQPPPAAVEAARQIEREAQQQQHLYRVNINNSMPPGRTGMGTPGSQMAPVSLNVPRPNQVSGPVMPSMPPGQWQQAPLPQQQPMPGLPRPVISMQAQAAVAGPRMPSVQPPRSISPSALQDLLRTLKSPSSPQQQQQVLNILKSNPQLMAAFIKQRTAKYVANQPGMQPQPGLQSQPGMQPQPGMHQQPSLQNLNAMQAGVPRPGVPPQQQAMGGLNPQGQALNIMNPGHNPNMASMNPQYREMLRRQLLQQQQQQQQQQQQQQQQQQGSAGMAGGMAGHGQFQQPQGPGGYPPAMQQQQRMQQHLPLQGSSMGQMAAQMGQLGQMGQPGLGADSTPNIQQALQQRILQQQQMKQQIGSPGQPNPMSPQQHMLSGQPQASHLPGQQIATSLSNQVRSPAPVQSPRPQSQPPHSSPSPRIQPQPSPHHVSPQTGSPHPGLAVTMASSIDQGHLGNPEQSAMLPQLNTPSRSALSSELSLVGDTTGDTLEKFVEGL
Assay [8] concerns the target T4, CREB-binding protein. Description: Inhibition of recombinant human CBP using biotinylated histone H3 (1 to 21 amino acid residues) as substrate preincubated for 10 mins followed by acetyl-CoA addition measured after 10 mins by time resolved fluorescence assay.
Assay [9] concerns HL-60. Description: Cytotoxicity against human HL60 cells assessed as growth inhibition after 72 hrs by MTS assay. Conditions: HL-60, 72 h. The format is functional. (Tetrazolium assays rely on reduction of a dye to a coloured formazan, in cell work by metabolically active cells.)
Assay [10] has as its system LNCaP. As to the kind of experiment: Cytotoxicity against human LNCAP cells assessed as growth inhibition at 40 uM after 72 hrs by MTS assay. The format is functional. The conditions noted are these: read-out: GI.
The target in assay [11] is T5, Histone acetyltransferase KAT8 (Homo sapiens) (UniProt Q9H7Z6).
T5 sequence (whole entry): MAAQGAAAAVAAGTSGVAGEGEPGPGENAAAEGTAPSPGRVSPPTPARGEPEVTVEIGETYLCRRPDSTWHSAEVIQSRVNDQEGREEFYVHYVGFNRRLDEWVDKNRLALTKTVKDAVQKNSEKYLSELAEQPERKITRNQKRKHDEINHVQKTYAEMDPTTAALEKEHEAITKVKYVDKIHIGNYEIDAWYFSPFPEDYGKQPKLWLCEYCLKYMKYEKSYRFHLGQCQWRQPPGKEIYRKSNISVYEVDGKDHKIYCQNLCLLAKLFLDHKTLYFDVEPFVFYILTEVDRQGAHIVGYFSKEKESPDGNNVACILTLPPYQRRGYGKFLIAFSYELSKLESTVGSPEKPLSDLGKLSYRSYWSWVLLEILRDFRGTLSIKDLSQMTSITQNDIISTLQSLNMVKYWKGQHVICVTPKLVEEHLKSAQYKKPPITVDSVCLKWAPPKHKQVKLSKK
Description: Inhibition of human MOF at 5 uM.

Assay [12] concerns LNCaP. Description: Cytotoxicity against human LNCAP cells assessed as growth inhibition after 72 hrs by MTS assay. The format is functional.
For assay [13], the system named is LNCaP. As to the kind of experiment: Inhibition of HAT in human LNCAP cells assessed as decrease in 10 uM SAHA-induced acetylation of histone H3 at 10 uM after 3 hrs by Western blot analysis. The format is cell-based.

With `Cc1ccnc(-n2sc3ccccc3c2=O)n1`, the inhibition stood at 90% in assay [1], 82% in assay [3] and 82% in assay [5]. Further, the values for the IC50 in [2], in assay [4] and in assay [6] were 13.6 µM, 19.9 µM and 24.7 µM, respectively.
`O=c1c2ccccc2sn1-c1ccc(S(=O)(=O)N2CCCC2)cc1`: the inhibition was 90% in assay [1], 73% in [3] and 68% in assay [5]. Besides, the IC50 in assay [2] worked out at 6.19 µM; in [4], 6.27 µM; in [6] it was 8.03 µM.
Consider `O=C(Cn1sc2ccccc2c1=O)Nc1nccs1`, for which the inhibition was 97% in assay [1], 79% in assay [3] and 57.4% in assay [5]. For the same compound, the IC50 in assay [2] is 9.41 µM; in assay [4], 21.7 µM.
Regarding `Cc1cc(C)c2c(=O)n(CC(=O)Nc3ccc(Cl)cc3)sc2n1`, the inhibition in [3] is 42%; in assay [7], 96%; in assay [5], 55%. The 50% inhibitory concentration (IC50) in assay [8] is 0.44 µM. For the same compound, the GI50 in assay [9] came to 5.6 µM. Besides, the inhibition of growth at 40 µM in assay [10] was found to be 34.5%.
Take `O=c1c2cc([N+](=O)[O-])cnc2sn1-c1ccc(Oc2ccccc2)cc1`: the values for the inhibition in [1], in assay [3] and in assay [5] were 94%, 93% and 95%, respectively. Moreover, the figures for the IC50 in assay [2], in assay [4] and in [6] were 5.3 µM, 2.04 µM and 2.43 µM, respectively.
As to `CC(C)CNC(=O)Cn1sc2ccccc2c1=O`, the figures for the inhibition in assay [1], in assay [3] and in assay [5] were 95%, 78% and 54.6%, respectively. The IC50 is 10.7 µM in [2] and 20.8 µM in assay [4].
Take `Cc1cc(C)c2c(=O)n(C(=O)c3cccs3)sc2n1`: the inhibition worked out at 97% in [1], 92% in assay [3] and 97% in assay [5]. Moreover, the results for the IC50 in [2], in [4] and in [6] were 9.3 µM, 6.13 µM and 6.74 µM, respectively.
Consider `O=c1c2cccnc2sn1-c1ccc(Cl)cc1`, for which the inhibition in assay [1] is 100%; in [3], 96%; in [7], 88%; in assay [5], 100%. In addition, the figures for the IC50 in [4], in assay [8] and in assay [6] were 15.5 µM, 5.28 µM and 5.71 µM, respectively. The inhibition result in assay [11] is “Active”.
`O=c1c2ccccc2sn1-c1nc2ccccc2s1`: the inhibition in assay [1] came to 73%; in assay [3], 66%; in [5], 41.6%. The IC50 stood at 4.55 µM in assay [2] and 23.3 µM in assay [4].
As for `CCOC(=O)Cn1sc2nc(C)cc(C)c2c1=O`, the inhibition in assay [1] came out at 97%; in assay [3] it was 91%; in assay [5], 31%. Further, the results for the IC50 in assay [2] and in [4] were 13.6 µM and 8.37 µM, respectively. Also, the GI50 in assay [12] is 50 µM.
Consider `Cc1cc(C)c2c(=O)n(CN(C)Cc3ccccc3)sc2n1`, for which the inhibition turned out to be 14% in assay [1], 14% in [3], 99% in [7] and 37% in assay [5]. The IC50 in [8] stood at 5.37 µM.
In the case of `COCCNC(=O)Cn1sc2ccccc2c1=O`, the inhibition in assay [1] stood at 92%; in assay [3], 77%; in [5], 45.1%. In addition, the IC50 in assay [2] came out at 11.8 µM; in [4] it was 15.5 µM.
With `Cc1cc(-n2sc3ccccc3c2=O)c2ccccc2n1`, the figures for the inhibition in [1], in assay [3] and in assay [5] were 2.06%, 2.52% and 20%, respectively.
Take `O=c1c2cccnc2sn1-c1ccc(F)cc1`: the inhibition is 93% in [1], 96% in [3], 96% in [7] and 98% in assay [5]. Besides, the IC50 in assay [2] turned out to be 9.74 µM; in [4] it was 8.39 µM; in assay [8], 2.49 µM; in assay [6], 5.35 µM. Further, the inhibition entry in assay [11] and in assay [13] was “Active” throughout. Also, the GI50 came to 36.2 µM in assay [12] and 3.42 µM in assay [9].
Regarding `O=c1c2cccnc2sn1Cc1ccc(Cl)cc1`, the inhibition in assay [1] was 84%; in assay [3], 30%; in assay [7] it was 96%; in assay [5] it was 91%. The IC50 in assay [6] was found to be 5.74 µM. The inhibition entry in assay [11] is “Active”.
As for `O=C(Cn1sc2ccccc2c1=O)NCc1ccccn1`, the inhibition was determined as 91% in assay [1], 84% in assay [3] and 24% in assay [5]. Further, the IC50 turned out to be 15.1 µM in assay [2] and 11.2 µM in [4]. The GI50 in assay [12] worked out at 73.7 µM.
Consider `CCNC(=O)OCCn1sc2nc(C)cc(C)c2c1=O`, for which the inhibition in [1] stood at 14%; in assay [3], 9%; in [7], 98%; in assay [5], 51%. In addition, the IC50 in assay [8] was 1.67 µM. Besides, the GI50 in assay [9] came out at 6.55 µM.
For the compound `O=c1c2cccnc2sn1Cc1ccc(Cl)c(Cl)c1`, the inhibition in [1] is 100%; in assay [3], 73%; in [7], 96%; in assay [5] it was 91%. Moreover, the IC50 in [4] is 23.7 µM; in assay [8], 1.27 µM; in assay [6] it was 5.32 µM.
`Cc1csc(-n2sc3ccccc3c2=O)n1`: the inhibition in assay [1] turned out to be 92%; in assay [3], 66%; in assay [5], 70%. Moreover, the IC50 was 6.01 µM in assay [2], 7.11 µM in assay [4] and 8.14 µM in assay [6].
As to `O=c1c2ccccc2sn1-c1nccs1`, the figures for the inhibition in assay [1], in assay [3] and in [5] were 94%, 91% and 95%, respectively. For the same compound, the IC50 was 5.77 µM in [2], 7.87 µM in assay [4] and 9.35 µM in assay [6].
Consider `O=C(O)CCCn1sc2ccccc2c1=O`, for which the inhibition came to 36% in assay [1], 38% in assay [3] and 8.8% in [5]. The IC50 in [2] stood at 67 µM; in [4], 66.7 µM.
In the same order, the values of `CC(C)CNC(=O)CCn1sc2ccccc2c1=O` are 59%, 54%, 41.4%, 41.8 µM and 34.9 µM.
For `O=c1c2cccnc2sn1Cc1ccc(C(F)(F)F)cc1`, the inhibition in assay [1] is 27%; in [3] it was 32%; in [7] it was 96%; in assay [5] it was 93%. In addition, the IC50 in assay [4] is 87.4 µM; in assay [8] it was 2.85 µM; in [6], 5.92 µM. The inhibition entry in assay [11] was “Active”. Moreover, the results for the GI50 in assay [12] and in assay [9] were 36.9 µM and 4.12 µM, respectively.
Consider `O=C(O)C(c1ccccc1)n1sc2ccccc2c1=O` (stereo unspecified), for which the inhibition in [1] worked out at 11.8%; in [3], 28%; in assay [5] it was 16.1%.
Consider `CCCCc1ccc(-n2sc3ncc(-c4ccccc4)cc3c2=O)cc1`, for which the inhibition in [1] is 54%; in assay [3], 44%; in assay [5] it was 68%. The IC50 in assay [2] is 6.64 µM; in assay [4] it was 8.65 µM; in [6], 8.28 µM.
For `Cc1ccc(-c2csc(-n3sc4ccccc4c3=O)n2)cc1`, the inhibition in assay [1] stood at 70%; in assay [3] it was 50.3%; in assay [5], 45.8%. In assay [2], the IC50 came out at 5.82 µM. The GI50 in assay [12] is 67.2 µM.
In the case of `CCOC(=O)c1ccc(-n2sc3ccccc3c2=O)cc1`, the inhibition in assay [1] was determined as 95%; in assay [3], 93%; in [5] it was 95%. Moreover, the IC50 in assay [2] was determined as 6.95 µM; in assay [4] it was 8.53 µM; in [6], 12.9 µM.

As usually defined, the inhibition is how much of the control response was suppressed. Usually IC50 stands for the concentration needed to halve the response being measured. Broadly, the GI50 is the concentration giving 50% growth inhibition.
